Converted amounts (≈) assume the structure as drawn. “And” between values parts separate entries of the source, which are not always exact repeats. Equal entries are not always repeated. Where two headings read alike, the source gives them in different places. Ends that are not written are not given here. Peptide text beside a SMILES is read from it.

Assay [1] concerns A. baumannii BAA747. It is filed as cell-based, Acinetobacter baumannii. On the procedure: (§1) The minimum inhibitory concentration of a peptide is the concentration at which no observable bacterial growth can be determined by visual inspection. MIC values are useful for determining the potential of a test article as a therapeutic, as well as in comparison to other test articles. A variety of antimicrobial peptides were tested for activity against an array of clinically relevant bacterial strains. The sequences of SMAP-29 derivatives and their key features can be seen in Table 1, with peptides being named in reference to how they were originally published. Peptides OV3-00 and OV3-01 were utilized in this study. Because the template (or parental) peptide, SMAP-29, derived from sheep leukocytes, is hemolytic to human red blood cells, efforts were made to enhance the therapeutic index of the peptide leading to the creation of OV and OV3 [14, 19]. Various derivatives were made and OV3 came to represent two distinct peptides in the literature: the peptide labeled OV3 and a peptide with an additional c-terminal YG, herein labeled OV3-00. Previous work in our laboratory utilized OV3 for the design and synthesis of ATCUN domain peptides, but it lacks a tryptophan or tyrosine residue that allows for more ready quantification of the peptide concentration by the extinction coefficient, leading to a less accurate, more difficult, concentration analysis by mass spectrometry. To ease quantification and facilitate studies on the OV3 series in our laboratory, and compare the effect of the added YG, additional work was pursued using the longer OV3-00 and OV3-01 derivatives.
(§2) Minimum inhibitory concentrations (MICs) of test molecules were established by broth dilution assays. Mid-log phase bacterial cultures of a variety of clinically important organisms were diluted and incubated with a serial dilution of each peptide, starting at 128 µM. The concentration of peptide at which no visible growth occurred was marked as the MIC. Bacterial strains were incubated in Mueller–Hinton Broth (MHB) at 37 degrees Celsius until the OD600 reached between 0.8 and 1. The resulting culture was subsequently diluted 100× into 96-well plates with the test articles. Positive and negative controls containing only MHB incubated with bacteria and MHB, respectively, were also included on the plate. Each 96-well plate was incubated for 16–20 h, and the MIC was determined by visual inspection. To determine the colony-forming units (CFUs) present in each assay, 100 µL of the 100× diluted culture was further diluted by 1000× and plated on agar plates and determined by use of Equation (1). The colonies were counted to ensure that the CFU value was between 10^4 and 10^5. CFU/mL = (mean # of colonies/0.1 mL) (1000 (dilution factor))(1)

For assay [2], the system named is E. coli 25922. The class given is cell-based, Escherichia coli. The protocol:
as §1, §2

Assay [3] concerns P. aeruginosa 27583. The class given is cell-based. The protocol: as §1, §2
The test system of assay [4] is E. faecium 700221 (VRE). The class given is cell-based. The protocol:
as §1, §2

In assay [5] the test system is K. pneumoniae 700603. The class given is cell-based. The protocol: as §1, §2
Assay [6] concerns S. aureus 43300 (MRSA). It is filed as cell-based. The protocol:
as §1, §2

Assay [7] has as its system E. coli 25922. As to the kind of experiment: FIC of peptide pairs (two-way dilution, 96-well plate). Conditions: single peptide on the FIC plate, initial screen, one value given. The class given is cell-based, Escherichia coli. The protocol: Determining MIC values informed decisions on testing peptides in combination. Fractional inhibitory concentrations determine the ability of test articles to act in concert against a pathogen. FIC determination is experimentally similar to MIC determination, except one test article is diluted down the wells and another is diluted across the wells of the 96-well plate in order to test the synergism of two peptides. […] Synergy is defined as an FIC of less than or equal to 0.5, meaning there is a four-fold reduction in the concentration of each peptide required for inhibition. Any number above 4 indicates a deleterious interaction that reduces the effectiveness of each peptide, and a value between 0.5 and 1 can be considered additive (Equation (2)).
Fractional inhibitory concentrations (FICs) were determined in a manner similar to MIC determinations but with serial dilutions of two peptides running both horizontally and vertically across the 96-well plate. Determination of the FIC can be seen in Equation (2), where FIC is the fractional inhibitory concentration, [A] is the concentration of substrate A at MIC in combination, [B] is the concentration of substrate B at MIC in combination, and MICA and MICB are the MIC of substrate A and substrate B, respectively. FIC = fractional inhibitory concentration, [A] = concentration of A at MIC in combination, [B] = concentration of B at MIC in combination, MICA = minimum inhibitory concentration of A, and MICB = minimum inhibitory concentration of B. When FIC ≤ 0.5 the results are synergistic. If FIC > 4, the results are antagonistic, and when FIC > 0.5, the results are indifferent or additive. (2) FIC=[A]/MICA+ [B]/MICB

One may read the MIC as the lowest concentration found to suppress growth. Low readings indicate a more susceptible organism, high ones a less susceptible organism. Take “GGHGIGKFLHSAKKWGKAFVGEIMNS-NH2 [Mag2-01]”: the MIC in assay [1] (BAA747) is recorded as 8 µM; in assay [2] (25922) it was 16 µM; in assay [3] (27583) it was 64 µM; in assay [4] (700221 (VRE)) it was 32 µM; in assay [5] (700603), 64 µM; in assay [6] (43300) it was more than 128 µM.

Take `CC[C@H](C)[C@H](NC(=O)[C@H](CC(C)C)NC(=O)[C@H](C)NC(=O)[C@@H]1CCCN1C(=O)[C@H](CC(C)C)NC(=O)CNC(=O)[C@@H](NC(=O)[C@@H](NC(=O)[C@H](CC(C)C)NC(=O)[C@@H](NC(=O)[C@H](CCCCN)NC(=O)[C@H](CCCCN)NC(=O)[C@@H](NC(=O)[C@H](C)NC(=O)[C@@H](NC(=O)[C@@H](NC(=O)[C@H](CC(C)C)NC(=O)[C@H](CCCCN)NC(=O)[C@H](CCCCN)NC(=O)[C@@H](NC(=O)[C@H](Cc1ccccc1)NC(=O)[C@H](CO)NC(=O)[C@H](CCCCN)NC(=O)[C@H](Cc1c[nH]c2ccccc12)NC(=O)[C@H](CCCCN)NC(=O)[C@H](Cc1c[nH]cn1)NC(=O)CNC(=O)CN)[C@@H](C)CC)[C@@H](C)O)[C@@H](C)O)C(C)C)C(C)C)[C@@H](C)O)[C@@H](C)O)C(=O)N[C@@H](CO)C(N)=O` [CP29-01]: the MIC turned out to be 1 µM (≈ 3.12 µg/mL) in assay [1] (A. baumannii BAA747, Gram (-), broth dilution in MHB, 37 °C, 16–20 h, visual inspection); 8 µM (≈ 25 µg/mL) in assay [2] (E. coli 25922, Gram (-), broth dilution in MHB, 37 °C, 16–20 h, visual inspection, dilution from 128 µM); 2 µM (≈ 6.25 µg/mL) in assay [3] (P. aeruginosa 27583, Gram (-), broth dilution in MHB, 37 °C, 16–20 h, visual inspection); 4 µM (≈ 12.5 µg/mL) in assay [4] (E. faecium 700221 (VRE), Gram (+), broth dilution in MHB, 37 °C, 16–20 h, visual inspection); 8 µM (≈ 25 µg/mL) in assay [5] (K. pneumoniae 700603, Gram (-), broth dilution in MHB, 37 °C, 16–20 h, visual inspection); 16 µM (≈ 50 µg/mL) in assay [6] (S. aureus 43300 (MRSA), Gram (+), broth dilution in MHB, 37 °C, 16–20 h, visual inspection).

On to GGHVRRFPWWWPFLRRGGC-NH2 [TRP-01], for which the MIC in assay [1] (BAA747) was determined as 16 µM; in assay [2] (25922) it was 32 µM; in assay [3] (27583), 64 µM; in assay [4] (700221 (VRE)) it was 8 µM; in assay [5] (700603), 32 µM; in assay [6] (43300), 32 µM.

In the case of GGHYLGALLGPLMNLLQ-NH2 [PFQα-01], the MIC in assay [1] (BAA747) is recorded as 128 µM; in assay [2] (25922) it was more than 128 µM; in assay [3] (27583) it was more than 128 µM; in assay [4] (700221 (VRE)), more than 128 µM; in assay [5] (700603), more than 128 µM; in assay [6] (43300), 16 µM.

For GGHIRRIIRKIIHIIKKYG-NH2 [OV3-01], the MIC in assay [1] (BAA747) amounted to 8 µM; in assay [2] (25922), 4 µM; in assay [3] (27583), 16 µM; in assay [4] (700221 (VRE)), 4 µM; in assay [5] (700603) it was 16 µM; in assay [6] (43300), 16 µM.

As for `CC[C@H](C)[C@H](NC(=O)[C@H](Cc1c[nH]cn1)NC(=O)CNC(=O)CN)C(=O)N[C@@H](CC(C)C)C(=O)N1CCC[C@H]1C(=O)N[C@@H](Cc1c[nH]c2ccccc12)C(=O)N[C@@H](CCCCN)C(=O)N[C@@H](Cc1c[nH]c2ccccc12)C(=O)N1CCC[C@H]1C(=O)N[C@@H](Cc1c[nH]c2ccccc12)C(=O)N[C@@H](Cc1c[nH]c2ccccc12)C(=O)N1CCC[C@H]1C(=O)N[C@@H](Cc1c[nH]c2ccccc12)C(=O)N[C@@H](CCCNC(=N)N)C(=O)N[C@@H](CCCNC(=N)N)C(=O)NCC(=O)NCC(=O)N[C@@H](CS)C(N)=O` [IND-01], the MIC is on record as 32 µM (≈ 76 µg/mL) in assay [1] (BAA747); 32 µM (≈ 76 µg/mL) in assay [2] (25922); more than 64 µM in assay [3] (27583); 8 µM (≈ 19 µg/mL) in assay [4] (700221 (VRE)); more than 64 µM in assay [5] (700603); 64 µM (≈ 152 µg/mL) in assay [6] (43300).

Take FVQWFSKFLGRIL-NH2 [TempL]: the MIC amounted to 4 µM in assay [1] (BAA747); 4 µM in assay [2] (25922); 32 µM in assay [3] (27583); 8 µM in assay [4] (700221 (VRE)); 16 µM in assay [5] (700603); 4 µM in assay [6] (43300).

Consider “GGHGVRRFPWWWPFLRR-NH2 [TRP-02, ATCUN derivative of tritrpticin]”, for which the “MICA/MICB, concentration with no growth when dosed separately” value in assay [7] is 8 µM and 16 µM.

Take GILAWKWAWWAWRR-NH2 [CP10A]: the minimum inhibitory concentration (MIC) worked out at 8 µM in assay [1] (BAA747); 16 µM in assay [2] (25922); 64 µM in assay [3] (27583); 8 µM in assay [4] (700221 (VRE)); 32 µM in assay [5] (700603); 4 µM in assay [6] (43300).

On to `CC(C)C[C@H](NC(=O)[C@H](Cc1ccccc1)NC(=O)[C@@H]1CCCN1C(=O)[C@H](Cc1c[nH]c2ccccc12)NC(=O)[C@H](Cc1c[nH]c2ccccc12)NC(=O)[C@H](Cc1c[nH]c2ccccc12)NC(=O)[C@@H]1CCCN1C(=O)[C@H](Cc1ccccc1)NC(=O)[C@H](CCCNC(=N)N)NC(=O)[C@H](CCCNC(=N)N)NC(=O)[C@@H](N)C(C)C)C(=O)N[C@@H](CCCNC(=N)N)C(=O)N[C@@H](CCCNC(=N)N)C(N)=O` [TRP, tritrpticin], for which the minimal inhibitory concentration (MIC) in assay [1] (BAA747) turned out to be 8 µM (≈ 15.2 µg/mL); in assay [2] (25922) it was 8 µM (≈ 15.2 µg/mL); in assay [3] (27583), 16 µM (≈ 30.4 µg/mL); in assay [4] (700221 (VRE)), 2 µM (≈ 3.8 µg/mL); in assay [5] (700603), 32 µM (≈ 60.8 µg/mL); in assay [6] (43300), 8 µM (≈ 15.2 µg/mL).

With IRRIIRKIIHIIKKYG-NH2 [OV3-00], the MIC in assay [1] (BAA747) worked out at 4 µM; in assay [2] (25922) it was 2 µM; in assay [3] (27583) it was 16 µM; in assay [4] (700221 (VRE)), 4 µM; in assay [5] (700603), 4 µM; in assay [6] (43300), 8 µM.

On to `NCC(=O)NCC(=O)N[C@@H](Cc1c[nH]cn1)C(N)=O` [GGH] (H-Gly-Gly-His-NH2), for which the MIC in assay [1] (BAA747), in assay [2] (25922), in assay [3] (27583), in assay [4] (700221 (VRE)), in assay [5] (700603) and in assay [6] (43300) was more than 128 µM each time.

Regarding “GGHGVRRFPWWWPFLRRGGC-NH2 [TRP-03, ATCUN derivative of tritrpticin]”, in assay [7], the “MICA/MICB, concentration with no growth when dosed separately” value is recorded as 16 µM.

For the origin of these results see paper PMC9692552, “Activity and Synergy of Cu-ATCUN Antimicrobial Peptides” (International Journal of Molecular Sciences, 2022).
